# Source: US10034886B2, “GLP-1 receptor modulators” (Celgene International II SÀRL, priority 2014, dated 2018)
# Target: T1, GLP-1R (Homo sapiens, UniProt P43220)
# T1 construct: host or cells: GLP-1R CRE-bla CHO-K1 cells
# Assay: EC20 GLP-1(9-36) PAM cAMP assay: dose response of compound in the presence of fixed concentration of GLP-1(9-36)
# Assay type: cell-based
# Conditions: GLP-1R CRE-bla CHO-K1 cells, compound dose response with fixed concentration of GLP-1(9-36), read-out: EC20 GLP-1(9-36) PAM EC50
# Method in brief: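 Positive allosteric modulation read as cAMP accumulation: compound titrations (12 points) combined with an EC20 level of GLP-1(9-36) on CHO-K1 GLP-1R CRE-bla cells, IBMX present, 30 min, 37 °C, pH 7.4 buffer. Luminescence converted to cAMP via standards; non-linear fit gave EC50 and Emax.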
# T1 sequence (P43220 24-463): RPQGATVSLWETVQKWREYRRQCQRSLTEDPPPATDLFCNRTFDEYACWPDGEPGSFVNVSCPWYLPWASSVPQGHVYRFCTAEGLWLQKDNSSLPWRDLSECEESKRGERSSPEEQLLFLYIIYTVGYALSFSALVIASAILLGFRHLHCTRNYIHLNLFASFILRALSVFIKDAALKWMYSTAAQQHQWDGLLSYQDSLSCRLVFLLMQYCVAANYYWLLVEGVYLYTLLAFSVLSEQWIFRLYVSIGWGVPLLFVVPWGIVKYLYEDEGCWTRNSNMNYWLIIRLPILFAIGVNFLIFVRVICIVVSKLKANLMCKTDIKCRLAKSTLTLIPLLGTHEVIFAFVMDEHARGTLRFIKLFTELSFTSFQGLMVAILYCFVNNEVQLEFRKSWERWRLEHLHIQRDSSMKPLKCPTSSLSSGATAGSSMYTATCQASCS
# T1 sequence (P01275 100-127 partner limits assumed): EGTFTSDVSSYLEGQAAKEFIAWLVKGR
row,Structure (SMILES),EC50 [µM]
1,Cc1ccc(-c2ccc(-c3ccc(-c4cnc(-c5ccc(C[C@H](NC(=O)c6ccc(C(C)(C)C)s6)C(=O)N6CC(C(=O)O)C6)cc5)nc4)c(F)c3)cc2)cc1 [Compound 1214],2.5 to 5
2,CCC[C@H]1CC[C@H](C2CCN(c3cnc(-c4ccc(C[C@H](NC(=O)c5ccc(C(C)(C)C)s5)C(=O)N[C@H](C)C(N)=O)cc4)nc3)CC2)CC1 [Compound 1441],0.8 to 2.5
3,CCC[C@H]1CC[C@H](C2CCN(c3cnc(-c4ccc(C[C@H](NC(=O)[C@H]5CC[C@H](C(C)(C)C)CC5)C(=O)N5CC(C(=O)O)C5)cc4)nc3)CC2)CC1 [Compound 1527],0.8 to 2.5
4,CCCc1ccc(-c2ccc(-c3cnc(-c4ccc(C[C@H](NC(=O)c5ccc(CC)s5)C(=O)N5CC(C(=O)O)C5)cc4)nc3)c(F)c2)cc1 [Compound 1397],< 0.8
5,CC[C@H]1CC[C@H](c2ccc(-c3cnc(-c4ccc(C[C@H](NC(=O)c5ccc(C)cc5)C(=O)O)cc4)nc3)cc2)CC1 [Compound 1371],0.8 to 2.5
6,CC(C)(C)c1ccc(C(=O)N[C@@H](Cc2ccc(-c3ncc(-c4ccc(-c5ccc(C(F)(F)F)cc5F)cc4F)cn3)cc2)C(=O)N2CC(C(=O)O)C2)s1 [Compound 1222],< 0.8
7,C[C@@H](NC(=O)[C@H](Cc1ccc(-c2ncc(-c3ccc4c(c3)Cc3ccccc3-4)cn2)cc1)NC(=O)c1ccc(C(C)(C)C)s1)C(=O)O [Compound 1299],0.8 to 2.5
8,CC(C)(C)c1ccc(C(=O)N[C@@H](Cc2ccc(-c3ncc(-c4ccc(-c5ccc(C(F)(F)F)cc5)cc4F)cn3)cc2)C(=O)O)s1 [Compound 1364],< 0.8
9,CC(C)(C)c1ccc(C(=O)N[C@@H](Cc2ccc(-c3ncc(-c4ccc(-c5ccc(C(F)(F)F)c(F)c5)cc4F)cn3)cc2)C(=O)N2CC(C(=O)O)C2)s1 [Compound 1217],< 0.8
10,CCCc1ccc(C2CCN(c3cnc(-c4ccc(C[C@H](NC(=O)c5ccc(C(C)(C)C)s5)C(=O)N5CC(C(=O)O)C5)cc4)nc3)CC2)nn1 [Compound 1501],5 to 10
11,CC(C)(C)c1ccc(C(=O)N[C@@H](Cc2ccc(-c3ncc(-c4ccc([C@H]5CC[C@H](C)CC5)cc4)cn3)cc2)C(=O)O)s1 [Compound 1358],2.5 to 5
12,CC(C)(C)c1ccc(C(=O)NC(Cc2ccc(-c3ncc(N4CCC5CCCCC5C4)cn3)cc2)C(=O)N2CC(C(=O)O)C2)s1 (centres unmarked) [Compound 1421],< 0.8
13,CC(=O)c1ccc(-c2ccc(-c3cnc(-c4ccc(C[C@H](NC(=O)c5ccc(C(C)(C)C)s5)C(=O)N[C@H](C)C(=O)O)cc4)nc3)cc2)cc1 [Compound 1292],< 0.8
14,CCCC[C@H]1CC[C@H](c2ccc(-c3cnc(-c4ccc(C[C@H](NC(=O)c5ccc(C(C)(C)C)s5)C(=O)N[C@H](C)C(=O)O)cc4)nc3)cc2)CC1 [Compound 1317],< 0.8
15,CCc1ccc(C(=O)N[C@@H](Cc2ccc(-c3ncc(-c4ccc(OCCCC(C)C)cc4)cn3)cc2)C(=O)N2CC(C(=O)O)C2)s1 [Compound 1241],0.8 to 2.5
16,CCC[C@H]1CC[C@H](C2CCN(c3cnc(-c4ccc(C[C@H](NC(=O)c5ccc(C(C)(C)C)s5)C(=O)N5CCC[C@H](C(=O)O)C5)cc4)nc3)CC2)CC1 [Compound 1456],< 0.8
17,CCCc1ccc(-c2ccc(-c3cnc(-c4ccc(C[C@H](NC(=O)c5ccc(C6CC6)s5)C(=O)N5CC(C(=O)O)C5)cc4)nc3)c(F)c2)cc1 [Compound 1406],< 0.8
18,Cc1ccc(S(=O)(=O)N2CC=C(c3cnc(-c4ccc(C[C@H](NC(=O)c5ccc(C(C)(C)C)s5)C(=O)N[C@H](C)C(=O)O)cc4)nc3)CC2)cc1 [Compound 1338],2.5 to 5
19,CCCc1ccc(N2CCN(c3cnc(-c4ccc(C[C@H](NC(=O)c5ccc(C(C)(C)C)s5)C(=O)N5CC(C(=O)O)C5)cc4)nc3)CC2)cc1 [Compound 1511],< 0.8
20,CC[C@H]1CC[C@H](c2ccc(-c3cnc(-c4ccc(C[C@H](NC(=O)c5ccc(CC(C)C)s5)C(=O)O)cc4)nc3)cc2)CC1 [Compound 1381],5 to 10

# Same assay, conditions: dose response of compound in presence of fixed concentration of GLP-1(9-36), GLP-1R CRE-bla CHO-K1 cells, read-out: EC20 GLP-1(9-36) PAM EC50
row,Structure (SMILES),EC50 [µM]
1,CCCCCCCOc1ccc(-c2cnc(-c3ccc(C[C@H](NC(=O)c4ccc(C5CC5)cc4)C(=O)N4CC[C@H](C(=O)O)C4)cc3)nc2)cc1 [Compound 857],5 to 10
2,CCCCCCCOc1ccc(-c2cnc(-c3ccc(C[C@H](NC(=O)c4ccc(C(C)(C)C)s4)C(=O)N4CCC(CC(=O)O)C4)cc3)nc2)cc1 (some centres unmarked) [Compound 613],0.8 to 2.5
3,CCCCCCOCC1CCN(c2cnc(-c3ccc(C[C@H](NC(=O)c4ccc(C(C)(C)C)cc4)C(=O)NCCC(=O)O)cc3)nc2)CC1 [Compound 693],5 to 10
4,Cc1cc(-c2cnc(-c3ccc(C[C@H](NC(=O)c4ccc(C(C)(C)C)s4)C(=O)N4CCC[C@H]4C(=O)O)cc3)nc2)ccc1OC(C)C [Compound 1127],0.8 to 2.5
5,CCCCCCCOc1ccc(-c2cnc(-c3ccc(C[C@H](NC(=O)c4ccc(C(C)(C)C)cc4)C(=O)NCC(C(=O)O)c4ccccc4)cc3)nc2)cc1 (some centres unmarked) [Compound 556],< 0.8
6,CCCCCCCOc1ccc(-c2cnc(-c3ccc(C[C@H](NC(=O)c4ccc(C(C)(C)C)s4)C(=O)N4CC=CC4C(=O)O)cc3)nc2)cc1 (some centres unmarked) [Compound 610],< 0.8
7,CC(C)(C)c1ccc(C(=O)N[C@@H](Cc2ccc(-c3ncc(-c4ccc([C@H]5CC[C@H](C(F)(F)F)CC5)cc4)cn3)cc2)C(=O)N2CC(C(=O)O)C2)s1 [Compound 1184],< 0.8
8,CCCCCC(=O)c1ccc(-c2cnc(-c3ccc(C[C@H](NC(=O)c4ccc(C(C)(C)C)cc4)C(=O)NCCC(=O)O)cc3)nc2)cc1 [Compound 690],2.5 to 5
9,C[C@@H](NC(=O)[C@H](Cc1ccc(-c2ncc(-c3cc(O)cc(OC(F)(F)F)c3)cn2)cc1)NC(=O)c1ccc(C(C)(C)C)s1)C(=O)O [Compound 1020],5 to 10
10,CCCCCCCOc1ccc(-c2cnc(-c3ccc(C[C@H](NC(=O)c4ccc(C(C)(C)C)cc4)C(=O)N[C@@H](CCC(N)=O)C(=O)O)cc3)nc2)cc1 [Compound 399],< 0.8
11,CCCCCCCOc1ccc(-c2cnc(-c3ccc(C[C@H](NC(=O)c4ccc(C(C)(C)C)cc4)C(=O)N[C@@H](CN)C(=O)O)cc3)nc2)cc1 [Compound 452],2.5 to 5
12,CC(C)(C)c1ccc(C(=O)N[C@@H](Cc2ccc(-c3ncc(-c4ccc([C@H]5CC[C@H](C(C)(C)C)CC5)cc4)cn3)cc2)C(=O)N2CC(C(=O)O)C2)s1 [Compound 1181],0.8 to 2.5
13,CCCCCCCOc1ccc(-c2cnc(-c3ccc(C[C@H](NC(=O)/C=C/c4ccc(OC)cc4)C(=O)N[C@H](C)C(=O)O)cc3)nc2)cc1 [Compound 1047],2.5 to 5
14,C[C@@H](NC(=O)[C@H](Cc1ccc(-c2ncc(-c3ccc(-c4ccc(C(F)(F)F)cc4)cc3F)cn2)cc1)NC(=O)c1ccc(C(C)(C)C)s1)C(=O)O [Compound 1174],< 0.8
15,CC(C)(C)c1ccc(C(=O)N[C@@H](Cc2ccc(-c3ncc(-c4ccc([C@H]5CC[C@@H](C)CC5)cc4)cn3)cc2)C(=O)N2CC(C(=O)O)C2)s1 [Compound 1177],< 0.8
16,C[C@@H](NC(=O)[C@H](Cc1ccc(-c2ncc(-c3ccc(Oc4ccccc4F)nc3)cn2)cc1)NC(=O)c1ccc(C(C)(C)C)s1)C(=O)O [Compound 1009],2.5 to 5
17,C[C@@H](NC(=O)[C@H](Cc1ccc(-c2ncc(-c3ccc(-c4ccc(C(F)(F)F)cc4F)cc3)cn2)cc1)NC(=O)c1ccc(C(C)(C)C)s1)C(=O)O [Compound 1147],< 0.8
18,CC(C)(C)c1ccc(C(=O)N[C@@H](Cc2ccc(-c3ncc(-c4ccc(-c5ccc(OC(F)(F)F)cc5)cc4F)cn3)cc2)C(=O)N2CC(C(=O)O)C2)s1 [Compound 1188],< 0.8
19,CCCCCCCOc1ccc(-c2cnc(-c3ccc(C[C@H](NC(=O)c4ccc(C(C)(C)C)s4)C(=O)N[C@@H](CC(=O)O)C(=O)NCC(N)=O)cc3)nc2)cc1 [Compound 530],< 0.8
20,C[C@@H](NC(=O)[C@H](Cc1ccc(-c2ncc(-c3ccc(OCc4ccccc4)nc3)cn2)cc1)NC(=O)c1ccc(C(C)(C)C)s1)C(=O)O [Compound 1040],5 to 10
21,CCCCCCCOc1ccc(-c2cnc(-c3ccc(C[C@H](NC(=O)c4ccc(N5CCCC5)cc4)C(=O)NCCC(=O)O)cc3)nc2)cc1 [Compound 869],2.5 to 5
22,CC(C)(C)c1ccc(C(=O)N[C@@H](Cc2ccc(-c3ncc(-c4ccc(-c5ccc(Cl)cc5)cc4F)cn3)cc2)C(=O)N2CC(C(=O)O)C2)s1 [Compound 1190],< 0.8
23,CCCCCCCOc1ccc(-c2cnc(-c3ccc(C[C@H](NC(=O)c4ccc(C(C)(C)C)cc4)C(=O)NC4(CC(=O)O)CCOCC4)cc3)nc2)cc1 [Compound 553],0.8 to 2.5
24,CCCCCCCOc1ccc(-c2cnc(-c3ccc(C[C@H](NC(=O)c4ccc(C(C)(C)C)s4)C(=O)N[C@@H](Cc4ccc(O)c(O)c4)C(=O)O)cc3)nc2)cc1 [Compound 601],0.8 to 2.5
25,CC(C)(C)c1ccc(C(=O)N[C@@H](Cc2ccc(-c3ncc(-c4ccc(OCC(F)(F)F)cc4)cn3)cc2)C(=O)NCCC(=O)O)cc1 [Compound 682],2.5 to 5
26,CC(C)Oc1cc(-c2cnc(-c3ccc(C[C@H](NC(=O)c4ccc(C(C)(C)C)s4)C(=O)N[C@H](C)C(=O)O)cc3)nc2)ccc1OC(F)(F)F [Compound 1013],5 to 10
27,CCCCCCOc1ccc(-c2cnc(-c3ccc(C[C@H](NC(=O)c4ccc(C(C)(C)C)s4)C(=O)N[C@H](C)C(=O)O)cc3)nc2)cc1 [Compound 735],0.8 to 2.5
28,CC[C@H]1CC[C@H](c2ccc(-c3cnc(-c4ccc(C[C@H](NC(=O)c5ccc(C6CC6)cc5)C(=O)N5CC(C(=O)O)C5)cc4)nc3)cc2)CC1 [Compound 1158],< 0.8
29,CCCCc1noc(-c2cnc(-c3ccc(C[C@H](NC(=O)c4ccc(C(C)(C)C)cc4)C(=O)NCCC(=O)O)cc3)nc2)n1 [Compound 743],5 to 10
30,CCCCCOc1ccc(-c2cnc(-c3ccc(C[C@H](NC(=O)c4ccc(C(C)(C)C)s4)C(=O)N4CC[C@H](C(=O)O)C4)cc3)nc2)cc1 [Compound 762],5 to 10
